Experimental data reported in patent US20060276464A1, “Diarylsulfone sulfonamides and use thereof” (Wyeth, priority 2005, published 2006).

How the values were obtained:
SFRP-1 [1] = target: T1, SFRP-1 (Homo sapiens, UniProt Q8N474); experiment: Fluorescence polarization binding assay (competitive displacement of a probe compound from SFRP-1); settings: fluorescence anisotropy, 45 nM SFRP-1, 20 nM probe;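 also: test compound competes with a fluorescent probe held by SFRP-1, seen as a drop in probe anisotropy after incubation in darkness, with anisotropy as function of rising compound dose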
T1 sequence (Q8N474 32-314): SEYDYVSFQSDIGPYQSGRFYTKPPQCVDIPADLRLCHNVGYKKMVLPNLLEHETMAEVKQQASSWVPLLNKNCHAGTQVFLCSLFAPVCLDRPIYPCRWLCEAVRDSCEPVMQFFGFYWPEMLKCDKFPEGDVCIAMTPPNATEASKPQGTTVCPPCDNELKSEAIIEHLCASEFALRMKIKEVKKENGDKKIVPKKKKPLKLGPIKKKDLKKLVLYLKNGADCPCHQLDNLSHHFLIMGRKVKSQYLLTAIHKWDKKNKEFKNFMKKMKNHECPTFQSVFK

SFRP-1 [2] = target: T1, SFRP-1; experiment: Cell-based assay for in vitro measurement of SFRP-1/SARP2 antagonist activity (U2OS cells co-transfected with 16x TCF-tk-Luciferase reporter, Wnt and hSFRP-1); settings: for fold induction at 10 µM: U2OS, read-out: Fold Induction with SFRP-1, U2OS cells, single dose 10 μM, luciferase reporter, fold induction over SFRP-1 control;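 as to all read-outs here: U2OS cells co-transfected with a TCF-tk luciferase reporter, a Wnt vector, hSFRP-1 or empty vector and CMV-βgal, luciferase luminescence read in cell lysates alongside βgal activity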

Row | Compound | IC50 (SFRP-1 [1]) [µM] | EC50 (SFRP-1 [2]) [µM] | fold induction at 10 µM (SFRP-1 [2])
1 | N#Cc1ccc(CCNS(=O)(=O)c2cc(S(=O)(=O)c3ccccc3)ccc2C(F)(F)F)cc1 [Example 966, N-[2-(4-cyanophenyl)ethyl]-5-(phenylsulfonyl)-2-(trifluoromethyl)benzenesulfonamide] | 0.5 | 0.229 | 1.5
2 | O=C(O)C1CCCC(NS(=O)(=O)c2cc(S(=O)(=O)c3ccccc3)ccc2C(F)(F)F)C1 (centres unmarked) [Example 967, 3-({[5-(phenylsulfonyl)-2-(trifluoromethyl)phenyl]sulfonyl}amino)cyclohexanecarboxylic acid] | 2.5 | – | 2.1
3 | O=C(O)C1CCC(NS(=O)(=O)c2cc(S(=O)(=O)c3ccccc3)ccc2C(F)(F)F)CC1 (centres unmarked) [Example 968, 4-({[5-(phenylsulfonyl)-2-(trifluoromethyl)phenyl]sulfonyl}amino)cyclohexanecarboxylic acid] | 1.4 | – | 2.4
4 | O=C(O)[C@H]1CC[C@H](CNS(=O)(=O)c2cc(S(=O)(=O)c3ccccc3)ccc2C(F)(F)F)CC1 [Example 969, trans-4-[({[5-(phenylsulfonyl)-2-(trifluoromethyl)phenyl]sulfonyl}amino)methyl]cyclohexanecarboxylic acid] | 0.18 | 0.588 | 3.1
5 | CN(CCCNS(=O)(=O)c1cc(S(=O)(=O)c2ccccc2)ccc1C(F)(F)F)C(=O)NC1CCNCC1 [Example 971, N-(3-{methyl[(piperidin-4-ylamino)carbonyl]amino}propyl)-5-(phenylsulfonyl)-2-(trifluoromethyl)benzenesulfonamide] | 0.6 | 0.774 | 2.7
6 | CN(CCCNS(=O)(=O)c1cc(S(=O)(=O)c2ccccc2)ccc1C(F)(F)F)C(=O)N1CCNCC1 [Example 975, N-methyl-N-[3-({[5-(phenylsulfonyl)-2-(trifluoromethyl)phenyl]sulfonyl}amino)propyl]piperazine-1-carboxamide] | 1.5 | 5.7 | –
7 | O=C(c1cc(Cl)cnc1Cl)N1CCC(NS(=O)(=O)c2cc(S(=O)(=O)c3ccccc3)ccc2C(F)(F)F)CC1 [Example 977, N-{1-[(2,5-dichloropyridin-3-yl)carbonyl]piperidin-4-yl}-5-(phenylsulfonyl)-2-(trifluoromethyl)benzenesulfonamide] | 0.18 | 1.1 | –
8 | O=C(c1ccnc(Cl)c1)N1CCC(NS(=O)(=O)c2cc(S(=O)(=O)c3ccccc3)ccc2C(F)(F)F)CC1 [Example 978, N-[1-(2-chloroisonicotinoyl)piperidin-4-yl]-5-(phenylsulfonyl)-2-(trifluoromethyl)benzenesulfonamide] | 0.25 | 0.392 | –
9 | O=C(O)c1ccc(-c2ccc(CNS(=O)(=O)c3cc(S(=O)(=O)c4ccccc4)ccc3C(F)(F)F)cc2)cc1 [Example 979, 4′-[({[5-(phenylsulfonyl)-2-(trifluoromethyl)phenyl]sulfonyl}amino)methyl]biphenyl-4-carboxylic acid] | 2.2 | 2.94 | –
10 | CN(CCNS(=O)(=O)c1cc(S(=O)(=O)c2ccccc2)ccc1C(F)(F)F)C(=O)NC1CCN(C(=O)CCC(=O)O)CC1 [Example 980, 4-{4-[({methyl[2-({[5-(phenylsulfonyl)-2-(trifluoromethyl)phenyl]sulfonyl}amino)ethyl]amino}carbonyl)amino]piperidin-1-yl}-4-oxobutanoic acid] | 0.4 | 0.853 | –
11 | CN(CCNS(=O)(=O)c1cc(S(=O)(=O)c2ccccc2)ccc1C(F)(F)F)C(=O)c1ccc(CBr)cc1 [Example 983, 4-(bromomethyl)-N-methyl-N-[2-({[5-(phenylsulfonyl)-2-(trifluoromethyl)phenyl]sulfonyl}amino)ethyl]benzamide] | 0.8 | 1.14 | –
12 | O=S(=O)(NCCc1ccc(-c2nn[nH]n2)cc1)c1cc(S(=O)(=O)c2ccccc2)ccc1C(F)(F)F [Example 984, 5-(phenylsulfonyl)-N-{2-[4-(2H-tetrazol-5-yl)phenyl]ethyl}-2-(trifluoromethyl)benzenesulfonamide] | 0.2 | 0.657 | –
13 | COP(=O)(Cc1ccc(C(=O)N(C)CCNS(=O)(=O)c2cc(S(=O)(=O)c3ccccc3)ccc2C(F)(F)F)cc1)OC [Example 1006, dimethyl [4-({methyl[2-({[5-(phenylsulfonyl)-2-(trifluoromethyl)phenyl]sulfonyl}amino)ethyl]amino}carbonyl)benzyl]phosphonate] | 0.18 | 8.16 | –

Continued, values first:

Row | IC50 (SFRP-1 [1]) [µM] | EC50 (SFRP-1 [2]) [µM] | fold induction at 10 µM (SFRP-1 [2]) | Compound
14 | 0.14 | 0.231 | – | CS(=O)(=O)Nc1ccc(CCNS(=O)(=O)c2cc(S(=O)(=O)c3ccccc3)ccc2C(F)(F)F)cc1 [Example 987, N-(2-{4-[(methylsulfonyl)amino]phenyl}ethyl)-5-(phenylsulfonyl)-2-(trifluoromethyl)benzenesulfonamide]
15 | 1.1 | 1.89 | – | CC(C)(C)OC(=O)NCCCNS(=O)(=O)c1cc(S(=O)(=O)c2ccccc2)ccc1C(F)(F)F [Example 988, tert-butyl [3-({[5-(phenylsulfonyl)-2-(trifluoromethyl)phenyl]sulfonyl}amino)propyl]carbamate]
16 | 0.13 | 0.577 | – | CN(CCNS(=O)(=O)c1cc(S(=O)(=O)c2ccccc2)ccc1C(F)(F)F)C(=O)N[C@@H]1CCN(C(=O)OC(C)(C)C)C1 [Example 990, tert-butyl (3R)-3-[({methyl[2-({[5-(phenylsulfonyl)-2-(trifluoromethyl)phenyl]sulfonyl}amino)ethyl]amino}carbonyl)amino]pyrrolidine-1-carboxylate]
17 | 0.08 | 2.64 | – | COc1ccc2c(c1)CC(NS(=O)(=O)c1cc(S(=O)(=O)c3ccccc3)ccc1C(F)(F)F)C2 (centres unmarked) [Example 991, N-(5-methoxy-2,3-dihydro-1H-inden-2-yl)-5-(phenylsulfonyl)-2-(trifluoromethyl)benzenesulfonamide]
18 | 0.7 | 3.16 | – | CN(CCCNS(=O)(=O)c1cc(S(=O)(=O)c2ccccc2)ccc1C(F)(F)F)C(=O)CCC(=O)O [Example 992, 4-{methyl[3-({(5-(phenylsulfonyl)-2-(trifluoromethyl)phenyl]sulfonyl}amino)propyl]amino}-4-oxobutanoic acid]
19 | 1.5 | 2.29 | – | NCCCNS(=O)(=O)c1cc(S(=O)(=O)c2ccccc2)ccc1C(F)(F)F [Example 993, N-(3-aminopropyl)-5-(phenylsulfonyl)-2-(trifluoromethyl)benzenesulfonamide]
20 | 0.3 | 3.01 | – | O=C(O)c1cccc(-c2cccc(CNS(=O)(=O)c3cc(S(=O)(=O)c4ccccc4)ccc3C(F)(F)F)c2)c1 [Example 996, 3′-[({[5-(phenylsulfonyl)-2-(trifluoromethyl)phenyl]sulfonyl}amino)methyl]biphenyl-3-carboxylic acid]
21 | 0.9 | 3.08 | – | O=C(O)c1ccc(-c2cccc(CNS(=O)(=O)c3cc(S(=O)(=O)c4ccccc4)ccc3C(F)(F)F)c2)cc1 [Example 997, 3′-[({[5-(phenylsulfonyl)-2-(trifluoromethyl)phenyl]sulfonyl}amino)methyl]biphenyl-4-carboxylic acid]
22 | 0.3 | 2.2 | – | N=C(N)Nc1ccc(CCNS(=O)(=O)c2cc(S(=O)(=O)c3ccccc3)ccc2C(F)(F)F)cc1 [Example 998, N-[2-(4-{[amino(imino)methyl]amino}phenyl)ethyl]-5-(phenylsulfonyl)-2-(trifluoromethyl)benzenesulfonamide]
23 | 0.8 | 0.789 | – | COc1ccc(S(=O)(=O)c2ccc(C(F)(F)F)c(S(=O)(=O)NC3CCNCC3)c2)cc1 [Example 999, 5-[(4-methoxyphenyl)sulfonyl]-N-piperidin-4-yl-2-(trifluoromethyl)benzenesulfonamide]
24 | 0.14 | 0.399 | – | CC(C(N)=O)N1CCC(NS(=O)(=O)c2cc(S(=O)(=O)c3ccccc3)ccc2C(F)(F)F)CC1 (centres unmarked) [Example 1003, 2-[4-({[5-(phenylsulfonyl)-2-(trifluoromethyl)phenyl]sulfonyl}amino)piperidin-1-yl]propanamide]
25 | 0.06 | 0.473 | – | O=S(=O)(NC1Cc2ccc(O)cc2C1)c1cc(S(=O)(=O)c2ccccc2)ccc1C(F)(F)F (centres unmarked) [Example 1004, N-(5-hydroxy-2,3-dihydro-1H-inden-2-yl)-5-(phenylsulfonyl)-2-(trifluoromethyl)benzenesulfonamide]
26 | 0.9 | 1.52 | – | CN(CCNS(=O)(=O)c1cc(S(=O)(=O)c2ccccc2)ccc1C(F)(F)F)C(=O)N(C)C1CCNCC1 [Example 1007, N-[2-(methyl{[methyl(piperidin-4-yl)amino]carbonyl}amino)ethyl]-5-(phenylsulfonyl)-2-(trifluoromethyl)benzenesulfonamide]
27 | 3 | 0.936 | – | CN(CCNS(=O)(=O)c1cc(S(=O)(=O)c2ccccc2)ccc1C(F)(F)F)C(=O)N[C@@H]1CCNC1 [Example 1008, N-[2-(methyl{[(3R)-pyrrolidin-3-ylamino]carbonyl}amino)ethyl]-5-(phenylsulfonyl)-2-(trifluoromethyl)benzenesulfonamide]
28 | 0.21 | 0.945 | – | CN(CCNS(=O)(=O)c1cc(S(=O)(=O)c2ccccc2)ccc1C(F)(F)F)C(=O)N[C@@H]1CCCN(C(=O)OC(C)(C)C)C1 [Example 1009, tert-butyl (3R)-3-[({methyl[2-({[5-(phenylsulfonyl)-2-(trifluoromethyl)phenyl]sulfonyl}amino)ethyl]amino}carbonyl)amino]piperidine-1-carboxylate]
